Laboratory results taken from publication PMC8550792, “Evolution of kinase polypharmacology across HSP90 drug discovery” (Cell Chemical Biology, 2021).

Tests used:
Experiment in all cases: biochemical
Type in all cases: biochemical
382 unique human kinases [1] = target: T1, 382 unique human kinases (Homo sapiens, UniProt P52333); conditions: JAK3, 10 uM; for remaining activity at 10 µM: read-out: % Enzyme Activity (relative to DMSO controls)
T1 construct: purchased Reaction Biology (HotSpot contract assay)
T1 sequence (P52333 1-1124): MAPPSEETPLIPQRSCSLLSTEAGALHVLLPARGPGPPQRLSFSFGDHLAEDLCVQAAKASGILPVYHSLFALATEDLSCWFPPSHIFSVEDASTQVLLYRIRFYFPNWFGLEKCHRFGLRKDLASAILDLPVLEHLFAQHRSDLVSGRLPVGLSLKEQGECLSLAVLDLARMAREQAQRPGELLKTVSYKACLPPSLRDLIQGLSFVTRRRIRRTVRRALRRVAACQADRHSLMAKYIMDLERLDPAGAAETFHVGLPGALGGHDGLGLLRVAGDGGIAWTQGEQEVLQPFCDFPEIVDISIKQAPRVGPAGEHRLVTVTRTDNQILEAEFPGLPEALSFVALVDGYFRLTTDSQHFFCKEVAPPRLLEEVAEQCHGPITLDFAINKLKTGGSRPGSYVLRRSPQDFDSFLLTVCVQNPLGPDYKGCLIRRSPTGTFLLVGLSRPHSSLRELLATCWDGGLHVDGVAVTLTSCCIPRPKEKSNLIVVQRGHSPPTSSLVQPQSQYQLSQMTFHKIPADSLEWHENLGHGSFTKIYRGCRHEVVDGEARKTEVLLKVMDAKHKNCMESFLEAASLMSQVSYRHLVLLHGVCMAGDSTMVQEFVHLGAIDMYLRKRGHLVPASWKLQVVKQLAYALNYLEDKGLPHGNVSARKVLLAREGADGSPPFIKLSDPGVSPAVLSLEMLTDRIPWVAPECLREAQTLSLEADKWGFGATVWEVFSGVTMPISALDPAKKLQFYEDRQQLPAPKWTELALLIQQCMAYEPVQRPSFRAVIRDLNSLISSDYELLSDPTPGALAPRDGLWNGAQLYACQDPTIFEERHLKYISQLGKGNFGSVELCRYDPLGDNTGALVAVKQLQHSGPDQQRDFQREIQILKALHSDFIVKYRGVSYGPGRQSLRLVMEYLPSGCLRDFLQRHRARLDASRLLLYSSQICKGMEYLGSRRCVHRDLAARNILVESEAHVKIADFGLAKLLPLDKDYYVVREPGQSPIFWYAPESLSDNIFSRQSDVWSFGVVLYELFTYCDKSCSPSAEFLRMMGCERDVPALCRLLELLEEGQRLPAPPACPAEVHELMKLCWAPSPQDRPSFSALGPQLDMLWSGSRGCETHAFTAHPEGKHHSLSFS

382 unique human kinases [2] = target: T2, 382 unique human kinases (Homo sapiens, UniProt O43293); conditions: kinase ZIPK/DAPK3, compound 10 uM; for remaining activity at 10 µM: read-out: % Enzyme Activity (relative to DMSO controls)
T2 construct: purchased Reaction Biology (HotSpot contract assay)

382 unique human kinases [3] = target: T3, 382 unique human kinases (Homo sapiens, UniProt Q02763, Y1108F); conditions: kinase TIE2 (Y1108F), compound 10 uM; for remaining activity at 10 µM: read-out: % Enzyme Activity (relative to DMSO controls)
T3 construct: purchased Reaction Biology (HotSpot contract assay)

382 unique human kinases [4] = target: T4, 382 unique human kinases (Homo sapiens, UniProt Q6VAB6); conditions: KSR2, 10 uM; for remaining activity at 10 µM: read-out: % Enzyme Activity (relative to DMSO controls)
T4 sequence (Q6VAB6 1-950): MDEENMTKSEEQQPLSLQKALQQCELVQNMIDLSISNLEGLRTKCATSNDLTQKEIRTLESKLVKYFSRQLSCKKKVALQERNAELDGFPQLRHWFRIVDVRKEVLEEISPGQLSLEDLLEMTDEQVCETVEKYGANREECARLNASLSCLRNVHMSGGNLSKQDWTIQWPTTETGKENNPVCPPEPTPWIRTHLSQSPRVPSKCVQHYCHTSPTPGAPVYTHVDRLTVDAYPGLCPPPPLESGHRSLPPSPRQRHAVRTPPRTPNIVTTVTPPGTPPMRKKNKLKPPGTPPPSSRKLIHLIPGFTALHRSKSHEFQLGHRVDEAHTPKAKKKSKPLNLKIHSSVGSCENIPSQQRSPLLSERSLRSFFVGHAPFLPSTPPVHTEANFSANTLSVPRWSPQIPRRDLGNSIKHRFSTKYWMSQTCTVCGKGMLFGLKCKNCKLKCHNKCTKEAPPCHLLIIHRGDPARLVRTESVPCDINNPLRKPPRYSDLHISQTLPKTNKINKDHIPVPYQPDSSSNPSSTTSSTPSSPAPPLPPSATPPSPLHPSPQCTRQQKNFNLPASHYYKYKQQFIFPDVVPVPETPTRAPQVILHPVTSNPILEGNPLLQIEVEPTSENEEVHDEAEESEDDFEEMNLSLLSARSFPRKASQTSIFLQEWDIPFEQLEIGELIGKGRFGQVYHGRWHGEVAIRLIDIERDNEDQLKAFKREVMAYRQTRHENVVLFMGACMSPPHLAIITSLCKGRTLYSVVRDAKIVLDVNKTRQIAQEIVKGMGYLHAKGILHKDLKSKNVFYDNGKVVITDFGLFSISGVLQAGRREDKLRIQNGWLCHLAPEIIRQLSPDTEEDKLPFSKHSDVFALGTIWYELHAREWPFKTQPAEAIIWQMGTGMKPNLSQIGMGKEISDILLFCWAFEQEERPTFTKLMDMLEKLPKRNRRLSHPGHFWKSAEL

382 unique human kinases [5] = target: T5, 382 unique human kinases (Homo sapiens, UniProt Q9UBE8); conditions: NLK, 10 uM; for remaining activity at 10 µM: read-out: % Enzyme Activity (relative to DMSO controls)
T5 construct: purchased Reaction Biology (HotSpot contract assay)
T5 sequence (Q9UBE8 1-527): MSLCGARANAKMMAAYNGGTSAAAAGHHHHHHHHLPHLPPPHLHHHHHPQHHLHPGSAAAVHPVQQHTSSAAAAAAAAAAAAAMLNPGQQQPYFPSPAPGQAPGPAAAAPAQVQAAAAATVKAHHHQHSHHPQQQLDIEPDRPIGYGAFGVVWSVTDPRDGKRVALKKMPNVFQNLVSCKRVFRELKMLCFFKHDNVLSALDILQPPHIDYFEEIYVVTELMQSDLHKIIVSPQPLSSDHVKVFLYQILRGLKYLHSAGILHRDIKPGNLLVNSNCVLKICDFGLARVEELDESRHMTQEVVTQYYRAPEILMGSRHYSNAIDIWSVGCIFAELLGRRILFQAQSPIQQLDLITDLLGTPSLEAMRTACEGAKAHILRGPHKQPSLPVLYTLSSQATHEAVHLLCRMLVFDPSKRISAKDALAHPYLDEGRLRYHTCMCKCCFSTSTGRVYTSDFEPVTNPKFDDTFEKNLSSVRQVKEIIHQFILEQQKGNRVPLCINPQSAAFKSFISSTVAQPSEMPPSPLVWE

382 unique human kinases [6] = target: T6, 382 unique human kinases (Homo sapiens, UniProt P16234, T674I); conditions: PDGFRa (T674I), [ATP] 20 µM, compound 10 uM; for remaining activity at 10 µM: read-out: % Enzyme Activity (relative to DMSO controls)
T6 construct: purchased Reaction Biology (HotSpot contract assay)

382 unique human kinases [7] = target: T7, 382 unique human kinases (Homo sapiens, UniProt P15056, V600E); conditions: BRAF (V599E), 10 uM; for remaining activity at 10 µM: read-out: % Enzyme Activity (relative to DMSO controls)
T7 construct: purchased Reaction Biology (HotSpot contract assay)
T7 sequence (P15056 whole entry V600E): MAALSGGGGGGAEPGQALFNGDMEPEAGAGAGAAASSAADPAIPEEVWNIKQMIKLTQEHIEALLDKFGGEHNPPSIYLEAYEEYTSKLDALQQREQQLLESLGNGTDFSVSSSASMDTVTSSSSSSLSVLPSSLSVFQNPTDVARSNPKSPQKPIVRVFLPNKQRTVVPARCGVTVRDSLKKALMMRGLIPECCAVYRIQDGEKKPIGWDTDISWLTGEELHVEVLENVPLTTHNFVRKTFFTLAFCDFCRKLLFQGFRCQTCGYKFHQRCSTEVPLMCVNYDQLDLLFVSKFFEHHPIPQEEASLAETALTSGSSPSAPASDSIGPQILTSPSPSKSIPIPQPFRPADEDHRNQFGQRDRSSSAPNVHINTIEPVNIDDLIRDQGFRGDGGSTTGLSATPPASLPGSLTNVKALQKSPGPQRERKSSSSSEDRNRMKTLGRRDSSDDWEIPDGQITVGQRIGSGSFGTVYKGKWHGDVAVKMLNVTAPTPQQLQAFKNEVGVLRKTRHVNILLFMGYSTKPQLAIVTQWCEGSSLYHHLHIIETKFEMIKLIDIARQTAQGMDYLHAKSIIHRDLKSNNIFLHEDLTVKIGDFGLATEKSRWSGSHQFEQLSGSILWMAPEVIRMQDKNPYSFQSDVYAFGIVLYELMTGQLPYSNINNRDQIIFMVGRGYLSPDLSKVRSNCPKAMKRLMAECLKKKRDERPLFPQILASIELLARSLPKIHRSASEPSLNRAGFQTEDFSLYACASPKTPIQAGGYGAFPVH

T2 sequence (O43293 whole entry): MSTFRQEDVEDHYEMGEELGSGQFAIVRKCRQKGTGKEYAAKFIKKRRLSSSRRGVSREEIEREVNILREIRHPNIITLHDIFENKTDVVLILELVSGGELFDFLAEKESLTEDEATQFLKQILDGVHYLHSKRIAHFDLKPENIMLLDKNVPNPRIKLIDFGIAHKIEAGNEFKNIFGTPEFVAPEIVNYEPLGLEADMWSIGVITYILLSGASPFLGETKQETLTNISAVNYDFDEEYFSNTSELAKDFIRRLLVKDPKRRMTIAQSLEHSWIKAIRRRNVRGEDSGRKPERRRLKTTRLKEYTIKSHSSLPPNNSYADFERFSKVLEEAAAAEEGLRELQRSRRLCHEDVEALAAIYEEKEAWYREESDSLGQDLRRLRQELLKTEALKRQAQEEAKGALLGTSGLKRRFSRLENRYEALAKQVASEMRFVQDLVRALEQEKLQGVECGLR
T6 sequence (P16234 24-1089 T674I): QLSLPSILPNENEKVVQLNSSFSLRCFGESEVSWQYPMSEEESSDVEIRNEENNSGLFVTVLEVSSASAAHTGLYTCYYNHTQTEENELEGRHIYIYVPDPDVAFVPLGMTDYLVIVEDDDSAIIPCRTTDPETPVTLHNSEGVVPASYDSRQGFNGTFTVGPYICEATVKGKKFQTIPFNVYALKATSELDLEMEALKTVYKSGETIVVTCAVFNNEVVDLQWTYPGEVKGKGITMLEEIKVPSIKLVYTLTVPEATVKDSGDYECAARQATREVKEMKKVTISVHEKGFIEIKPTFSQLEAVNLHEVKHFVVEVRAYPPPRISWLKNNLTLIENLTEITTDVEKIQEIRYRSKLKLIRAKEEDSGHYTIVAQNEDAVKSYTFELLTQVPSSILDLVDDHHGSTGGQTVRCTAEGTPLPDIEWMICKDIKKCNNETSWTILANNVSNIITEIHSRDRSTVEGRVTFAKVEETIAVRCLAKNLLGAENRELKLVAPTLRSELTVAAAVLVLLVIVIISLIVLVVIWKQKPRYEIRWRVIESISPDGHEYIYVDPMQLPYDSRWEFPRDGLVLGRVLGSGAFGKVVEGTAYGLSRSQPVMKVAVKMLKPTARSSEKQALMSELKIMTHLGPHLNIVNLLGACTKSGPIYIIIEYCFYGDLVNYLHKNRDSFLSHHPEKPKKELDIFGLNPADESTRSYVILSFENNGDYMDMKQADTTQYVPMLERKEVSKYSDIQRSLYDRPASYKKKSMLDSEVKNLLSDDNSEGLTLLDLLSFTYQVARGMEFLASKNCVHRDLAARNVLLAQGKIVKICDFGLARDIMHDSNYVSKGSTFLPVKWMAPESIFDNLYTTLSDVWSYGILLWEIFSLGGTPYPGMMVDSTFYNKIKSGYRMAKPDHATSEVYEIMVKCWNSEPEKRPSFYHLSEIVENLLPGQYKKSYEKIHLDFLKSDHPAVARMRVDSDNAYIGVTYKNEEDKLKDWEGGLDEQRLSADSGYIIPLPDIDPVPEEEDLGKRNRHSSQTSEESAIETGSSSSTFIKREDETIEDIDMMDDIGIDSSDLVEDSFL
T3 sequence (Q02763 23-1124 Y1108F): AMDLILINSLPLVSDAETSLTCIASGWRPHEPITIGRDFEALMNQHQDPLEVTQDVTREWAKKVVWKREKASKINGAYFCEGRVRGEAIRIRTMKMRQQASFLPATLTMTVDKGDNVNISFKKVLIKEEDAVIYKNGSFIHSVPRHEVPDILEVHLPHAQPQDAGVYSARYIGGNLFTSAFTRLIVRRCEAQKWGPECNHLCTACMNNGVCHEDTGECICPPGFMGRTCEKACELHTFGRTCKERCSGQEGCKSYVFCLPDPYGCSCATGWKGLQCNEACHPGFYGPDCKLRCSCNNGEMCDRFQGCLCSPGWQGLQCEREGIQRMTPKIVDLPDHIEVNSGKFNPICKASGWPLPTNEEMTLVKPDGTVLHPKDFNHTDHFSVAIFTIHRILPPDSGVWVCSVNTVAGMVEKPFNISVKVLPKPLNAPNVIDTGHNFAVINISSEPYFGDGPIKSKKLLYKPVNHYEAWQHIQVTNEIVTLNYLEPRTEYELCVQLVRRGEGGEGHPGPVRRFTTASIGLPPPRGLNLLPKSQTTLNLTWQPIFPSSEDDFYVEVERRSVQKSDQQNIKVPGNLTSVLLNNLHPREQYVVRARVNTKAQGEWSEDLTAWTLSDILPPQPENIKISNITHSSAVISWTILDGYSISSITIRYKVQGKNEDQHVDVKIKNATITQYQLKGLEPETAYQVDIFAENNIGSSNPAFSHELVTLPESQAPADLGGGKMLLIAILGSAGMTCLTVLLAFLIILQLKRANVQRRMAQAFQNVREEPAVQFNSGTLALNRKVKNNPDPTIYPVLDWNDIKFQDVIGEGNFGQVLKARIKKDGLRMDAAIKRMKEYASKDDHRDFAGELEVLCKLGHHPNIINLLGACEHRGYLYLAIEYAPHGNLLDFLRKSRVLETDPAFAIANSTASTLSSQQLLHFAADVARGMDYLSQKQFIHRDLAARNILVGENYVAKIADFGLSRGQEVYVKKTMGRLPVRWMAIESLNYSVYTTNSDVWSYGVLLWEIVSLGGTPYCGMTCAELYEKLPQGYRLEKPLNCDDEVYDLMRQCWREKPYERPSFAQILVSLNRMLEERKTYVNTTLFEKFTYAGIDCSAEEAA

Question: `CC(C)c1cc(-c2n[nH]c(=O)n2-c2ccc3c(ccn3C)c2)c(O)cc1O` [Ganetespib (STA9090)] was tested. Which remaining activity at 10 µM (382 unique human kinases [1]) did it give?
Answer: 60.1%

Question: What about the remaining activity at 10 µM (382 unique human kinases [2]) of the same compound?
Answer: 89.8%

Question: What about the remaining activity at 10 µM (382 unique human kinases [3]) of the same compound?
Answer: 90%

Question: How did the remaining activity at 10 µM (382 unique human kinases [4]) turn out when `CC(C)c1cc(-c2n[nH]c(=O)n2-c2ccc3c(ccn3C)c2)c(O)cc1O` [Ganetespib] was run?
Answer: 94.1%

Question: What about the remaining activity at 10 µM (382 unique human kinases [5]) of the same compound?
Answer: 94.8%

Question: And the remaining activity at 10 µM (382 unique human kinases [6])?
Answer: 33.8%

Question: And the remaining activity at 10 µM (382 unique human kinases [7])?
Answer: 110%

Question: What does the source list for `CCNC(=O)c1noc(-c2cc(C(C)C)c(O)cc2O)c1-c1ccc(CN2CCOCC2)cc1` [Luminespib]?
Answer: % Enzyme Activity (relative to DMSO controls) (382 unique human kinases [4]): 96.02%; remaining activity at 10 µM (382 unique human kinases [4]): 96.3%; % Enzyme Activity (relative to DMSO controls) (382 unique human kinases [5]): 91.72%; remaining activity at 10 µM (382 unique human kinases [5]): 92.5%; % Enzyme Activity (relative to DMSO controls) (382 unique human kinases [6]): 89.59%; remaining activity at 10 µM (382 unique human kinases [6]): 91.6%; % Enzyme Activity (relative to DMSO controls) (382 unique human kinases [7]): 98.13%; remaining activity at 10 µM (382 unique human kinases [7]): 98.8%

Question: Which “% Enzyme Activity (relative to DMSO controls)” value (382 unique human kinases [1]) does the source give for `CCNC(=O)c1noc(-c2cc(C(C)C)c(O)cc2O)c1-c1ccc(CN2CCOCC2)cc1` [Luminespib (AUY-922)] here?
Answer: 102.74%

Question: And the remaining activity at 10 µM (382 unique human kinases [1])?
Answer: 103%

Question: What about the “% Enzyme Activity (relative to DMSO controls)” value (382 unique human kinases [2]) of the same compound?
Answer: 97.96%

Question: And the remaining activity at 10 µM (382 unique human kinases [2])?
Answer: 98.6%

Question: What about the “% Enzyme Activity (relative to DMSO controls)” value (382 unique human kinases [3]) of the same compound?
Answer: 108.40%

Question: What about the remaining activity at 10 µM (382 unique human kinases [3]) of the same compound?
Answer: 110%
